Tests used:
rice flat sedge = experiment: Test Example 3: herbicidal effect by foliage application, Wagner pot (Table 18, symbol E); format: in vivo, rice flat sedge (Cyperus iria); details: 320 g/ha
Summary of the method: (§1)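 Plants were sown in alluvial soil held under 0.1–0.5 cm standing water and grown 14 days in a greenhouse at 25–30 °C. An emulsifiable formulation, water-diluted to the set dose, was then sprayed onto the foliage, and effects were scored three weeks later using previously defined criteria.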

southern crabgrass [1] = experiment: Test Example 5: herbicidal effect by foliage application, plastic box (Table 20, symbol F); format: in vivo, southern crabgrass (Digitaria ciliaris); details: 320 g/ha, foliage application after 14-day growth, evaluated three weeks after application
Summary of the method: (§2)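 Sow seeds spot-wise in sterilized diluvial soil; cover with ~1.5 cm soil. Grow 14 days in greenhouse, 25° C. to 30° C. Spray foliage with emulsion diluted to predetermined amount. Rate effect after 3 weeks.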

wild oat [2] = experiment: Test Example 4: herbicidal effect by soil treatment (Table 19, symbol I); format: in vivo, wild oat (Avena fatua); details: amount of applied herbicide 320 g/ha
Summary of the method: (§3)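 Soil-surface application: an emulsion agent diluted with water to the predetermined dose is sprayed uniformly over seeds lying under roughly 1.5 cm of sterilized diluvial soil. Boxes stay in a greenhouse at 25° C. to 30° C. Three weeks later, each species is graded on previously defined criteria.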

Italian ryegrass [3] = experiment: Test Example 4: herbicidal effect by soil treatment (Table 19, symbol K); format: in vivo, Italian ryegrass (Lolium multiflorum); details: amount of applied herbicide 320 g/ha
Summary of the method: as §3

southern crabgrass [4] = experiment: Test Example 4: herbicidal effect by soil treatment (Table 19, symbol F); format: in vivo, southern crabgrass (Digitaria ciliaris); details: amount of applied herbicide 320 g/ha
Summary of the method: as §3

lambsquarters [5] = experiment: Test Example 5: herbicidal effect by foliage application, plastic box (Table 20, symbol O); format: in vivo, lambsquarters (Chenopodium album); details: 320 g/ha, foliage application after 14-day growth, evaluated three weeks after application
Summary of the method: as §2

barnyard grass [6] = experiment: Test Example 4: herbicidal effect by soil treatment (Table 19, symbol H); format: in vivo, barnyard grass (Echinochloa crus-galli); details: amount of applied herbicide 320 g/ha
Summary of the method: as §3

Italian ryegrass [7] = experiment: Test Example 5: herbicidal effect by foliage application, plastic box (Table 20, symbol K); format: in vivo, Italian ryegrass (Lolium multiflorum); details: 320 g/ha, foliage application after 14-day growth, evaluated three weeks after application
Summary of the method: as §2

chickweed [8] = experiment: Test Example 4: herbicidal effect by soil treatment (Table 19, symbol P); format: in vivo, common chickweed (Stellaria media); details: amount of applied herbicide 320 g/ha
Summary of the method: as §3

wild oat [9] = experiment: Test Example 5: herbicidal effect by foliage application, plastic box (Table 20, symbol I); format: in vivo, wild oat (Avena fatua); details: 320 g/ha, foliage application after 14-day growth, evaluated three weeks after application
Summary of the method: as §2

redroot pigweed [10] = experiment: Test Example 4: herbicidal effect by soil treatment (Table 19, symbol N); format: in vivo, redroot pigweed (Amaranthus retroflexus); details: amount of applied herbicide 320 g/ha
Summary of the method: as §3

Chinese sprangletop = experiment: Test Example 3: herbicidal effect by foliage application, Wagner pot (Table 18, symbol D); format: in vivo, chinese sprangletop (Leptochloa chinensis); details: 320 g/ha
Summary of the method: as §1

persian speedwell [11] = experiment: Test Example 5: herbicidal effect by foliage application, plastic box (Table 20, symbol R); format: in vivo, Persian speedwell (Veronica persica); details: 320 g/ha, foliage application after 14-day growth, evaluated three weeks after application
Summary of the method: as §2

barnyard grass [12] = experiment: Test Example 5: herbicidal effect by foliage application, plastic box (Table 20, symbol H); format: in vivo, barnyard grass (Echinochloa crus-galli); details: 320 g/ha, foliage application after 14-day growth, evaluated three weeks after application
Summary of the method: as §2

redroot pigweed [13] = experiment: Test Example 5: herbicidal effect by foliage application, plastic box (Table 20, symbol N); format: in vivo, redroot pigweed (Amaranthus retroflexus); details: 320 g/ha, foliage application after 14-day growth, evaluated three weeks after application
Summary of the method: as §2

chickweed [14] = experiment: Test Example 5: herbicidal effect by foliage application, plastic box (Table 20, symbol P); format: in vivo, common chickweed (Stellaria media); details: 320 g/ha, foliage application after 14-day growth, evaluated three weeks after application
Summary of the method: as §2

blackgrass = experiment: Test Example 5: herbicidal effect by foliage application, plastic box (Table 20, symbol J); format: in vivo, blackgrass (Alopecurus myosuroides); details: 320 g/ha, foliage application after 14-day growth, evaluated three weeks after application
Summary of the method: as §2

lambsquarters [15] = experiment: Test Example 4: herbicidal effect by soil treatment (Table 19, symbol O); format: in vivo, lambsquarters (Chenopodium album); details: amount of applied herbicide 320 g/ha
Summary of the method: as §3

green foxtail [16] = experiment: Test Example 4: herbicidal effect by soil treatment (Table 19, symbol G); format: in vivo, green foxtail (Setaria viridis); details: amount of applied herbicide 320 g/ha
Summary of the method: as §3

velvetleaf [17] = experiment: Test Example 5: herbicidal effect by foliage application, plastic box (Table 20, symbol M); format: in vivo, velvetleaf (Abutilon theophrasti); details: 320 g/ha, foliage application after 14-day growth, evaluated three weeks after application
Summary of the method: as §2

windgrass [18] = experiment: Test Example 4: herbicidal effect by soil treatment (Table 19, symbol L); format: in vivo, windgrass (Apera spica-venti); details: amount of applied herbicide 320 g/ha
Summary of the method: as §3

windgrass [19] = experiment: Test Example 5: herbicidal effect by foliage application, plastic box (Table 20, symbol L); format: in vivo, windgrass (Apera spica-venti); details: 320 g/ha, foliage application after 14-day growth, evaluated three weeks after application
Summary of the method: as §2

persian speedwell [20] = experiment: Test Example 4: herbicidal effect by soil treatment (Table 19, symbol R); format: in vivo, Persian speedwell (Veronica persica); details: amount of applied herbicide 320 g/ha
Summary of the method: as §3

barnyard grass [21] = experiment: Test Example 3: herbicidal effect by foliage application, Wagner pot (Table 18, symbol H); format: in vivo, barnyard grass (Echinochloa crus-galli); details: 320 g/ha
Summary of the method: as §1

velvetleaf [22] = experiment: Test Example 4: herbicidal effect by soil treatment (Table 19, symbol M); format: in vivo, velvetleaf (Abutilon theophrasti); details: amount of applied herbicide 320 g/ha
Summary of the method: as §3

green foxtail [23] = experiment: Test Example 5: herbicidal effect by foliage application, plastic box (Table 20, symbol G); format: in vivo, green foxtail (Setaria viridis); details: 320 g/ha, foliage application after 14-day growth, evaluated three weeks after application
Summary of the method: as §2

Cc1nn(C)c(=O)c(-c2c(-c3ccc(OC(F)F)cc3)sc3c(F)cccc23)c1O [4-046]
herbicidal effect on rice flat sedge (E) (rice flat sedge): 5 (Herbicidal rate of 90% or more (almost completely withered)) | herbicidal effect on F: southern crabgrass (evaluation grade 0-5) (southern crabgrass [1]): 0 (Herbicidal rate of 5% or less (almost no effect)) | Herbicidal effect by soil treatment, I: wild oat (wild oat [2]): 0 (Herbicidal rate of 5% or less (almost no effect)) | Herbicidal effect by soil treatment, K: Italian ryegrass (Italian ryegrass [3]): 3 (Herbicidal rate of 40% or more and less than 70%) | Herbicidal effect by soil treatment, F: southern crabgrass (southern crabgrass [4]): 0 (Herbicidal rate of 5% or less (almost no effect)) | herbicidal effect on O: lambsquarters (evaluation grade 0-5) (lambsquarters [5]): 5 (Herbicidal rate of 90% or more (almost completely withered)) | Herbicidal effect by soil treatment, H: barnyard grass (barnyard grass [6]): 3 (Herbicidal rate of 40% or more and less than 70%) | herbicidal effect on K: Italian ryegrass (evaluation grade 0-5) (Italian ryegrass [7]): 5 (Herbicidal rate of 90% or more (almost completely withered)) | Herbicidal effect by soil treatment, P: chickweed (chickweed [8]): 3 (Herbicidal rate of 40% or more and less than 70%) | herbicidal effect on I: wild oat (evaluation grade 0-5) (wild oat [9]): 4 (Herbicidal rate of 70% or more and less than 90%) | Herbicidal effect by soil treatment, N: redroot pigweed (redroot pigweed [10]): 5 (Herbicidal rate of 90% or more (almost completely withered)) | herbicidal effect on Chinese sprangletop (D) (Chinese sprangletop): 1 (Herbicidal rate of 5% or more and less than 20%) | herbicidal effect on R: persian speedwell (evaluation grade 0-5) (persian speedwell [11]): 5 (Herbicidal rate of 90% or more (almost completely withered)) | herbicidal effect on H: barnyard grass (evaluation grade 0-5) (barnyard grass [12]): 5 (Herbicidal rate of 90% or more (almost completely withered)) | herbicidal effect on N: redroot pigweed (evaluation grade 0-5) (redroot pigweed [13]): 5 (Herbicidal rate of 90% or more (almost completely withered)) | herbicidal effect on P: chickweed (evaluation grade 0-5) (chickweed [14]): 5 (Herbicidal rate of 90% or more (almost completely withered)) | herbicidal effect on J: blackgrass (evaluation grade 0-5) (blackgrass): 4 (Herbicidal rate of 70% or more and less than 90%) | Herbicidal effect by soil treatment, O: lambsquarters (lambsquarters [15]): 1 (Herbicidal rate of 5% or more and less than 20%) | Herbicidal effect by soil treatment, G: green foxtail (green foxtail [16]): 3 (Herbicidal rate of 40% or more and less than 70%) | herbicidal effect on M: velvetleaf (evaluation grade 0-5) (velvetleaf [17]): 5 (Herbicidal rate of 90% or more (almost completely withered)) | Herbicidal effect by soil treatment, L: windgrass (windgrass [18]): 0 (Herbicidal rate of 5% or less (almost no effect)) | herbicidal effect on L: windgrass (evaluation grade 0-5) (windgrass [19]): 5 (Herbicidal rate of 90% or more (almost completely withered)) | Herbicidal effect by soil treatment, R: persian speedwell (persian speedwell [20]): 5 (Herbicidal rate of 90% or more (almost completely withered)) | herbicidal effect on barnyard grass (H) (barnyard grass [21]): 5 (Herbicidal rate of 90% or more (almost completely withered)) | Herbicidal effect by soil treatment, M: velvetleaf (velvetleaf [22]): 3 (Herbicidal rate of 40% or more and less than 70%) | herbicidal effect on G: green foxtail (evaluation grade 0-5) (green foxtail [23]): 5 (Herbicidal rate of 90% or more (almost completely withered))
